Experimental data from US20030026797A1, “Antifungal compositions” (priority 1996, published 2003).

What was measured:
[1] = system: conidia of Fusarium oxysporum; assay: Survival of hot-water treated conidia of Fusarium oxysporum (plating on PDA-V agar); assay type: cell-based; conditions: 2 hrs at 43.5° C., 25,000 conidia per ml, no enzymes
Experimental: Viability of conidia of Fusarium oxysporum was measured at the start and at the end of the hot-water treatment. (2 hrs at 43.5° C.).
Five samples of 1 ml were mixed each with 20 ml of PDA containing 50 microgram/ml vendarcin (PDA-V) and poured into petri dishes of 14 cm diameter. Colonies were counted after 2 and 5 days at 25° C.
In the presence of natamycin and fungal cell wall degrading enzymes, 2 samples of 25 ml were taken from the bath at the beginning and the end of the treatment. These samples were centrifuged at 3,000*g for 15 min. The pellet containing the conidia was washed several times with sterile water to remove the antifungal agents, followed by centrifugation and dilution to allow for plating on PDA-V as described above. […]
Chitinase and β-1,3-glucanase respectively were added to the hot-water bath to a final activity of 36,000 and 10,000 units per liter. Units are as defined in Example 1.

[2] = system: Rhizoctonia; assay: Soil treatment against Rhizoctonia infection of flower bulbs (visual inspection after 4 weeks); assay type: in vivo; conditions: 18° C.
Experimental: Bulbs were planted in pots at standard soil at a depth of 20 cm. Oat borne sclerotia of Rhizoctonia were mixed through the soil to infect the bulbs. Temperature was maintained at 18° C. during the experiment. Experiments were replicated 5 fold. Natamycin and fungal cell wall degrading enzymes were mixed as powders through the soil prior to infection with Rhizoctonia. Natamycin was tested at final concentrations of 1000, 500 and 100 mg/kg. Chitinase and β-1,3-glucanase was mixed through the soil to a final activity of 3600 and 1000 units per kg of soil. After 4 weeks bulbs were monitored for fungal infection by means of visual inspection.

## C[C@@H]1C/C=C/C=C/C=C/C=C/[C@H](O[C@@H]2O[C@H](C)[C@@H](O)[C@H](N)[C@@H]2O)C[C@@H]2O[C@](O)(C[C@@H](O)C[C@H]3O[C@@H]3/C=C/C(=O)O1)C[C@H](O)[C@H]2C(=O)O [Natamycin, natamycin]
[1]; natamycin 100 mg/L in hot-water bath
  Surviving conidia per ml: 70 per ml
[1]; natamycin 200 mg/L in hot-water bath
  Surviving conidia per ml: 50 per ml
[1]; natamycin 300 mg/L in hot-water bath
  Surviving conidia per ml: <1 per ml
[2]; natamycin 100 mg/kg soil
  Percentage of bulbs showing fungal infection: 50%
[2]; natamycin 500 mg/kg soil
  Percentage of bulbs showing fungal infection: 42%
[2]; natamycin 1000 mg/kg soil
  Percentage of bulbs showing fungal infection: 19%
